Assay results: US9856245B2, “GPR40 agonists for the treatment of type II diabetes” (Janssen Pharmaceutica NV, priority 2015, dated 2018)
Several values for one entry are separate records, joined by “and”; a condition that tells them apart may be missing. Equal entries are not always repeated.

Target: T1, human GPR40 (Homo sapiens, UniProt O14842)
T1 construct: expressed in transfected cells
Experiment: GPR40 calcium flux assay (hGPR40 Ca2+ Assay)
Type: cell-based
Conditions: transfected HEK293 cells stably expressing human GPR40; Fluo 8 calcium dye; multiple values = repeated testing; read-out: hGPR40 Ca^2+ Assay EC50
Protocol: Compounds were tested in a calcium flux assay using transfected HEK293 cells stably expressing either human GPR40 or rat GPR40. Human GPR40 expressing cells were cultured in DMEM-High Glucose media supplemented with 10% fetal bovine serum, 1× L-Glutamine, 1× Penicillin/Streptomycin and 500 μg/mL G418. Rat GPR40 expressing cells were cultured in DMEM-High Glucose media supplemented with 10% fetal bovine serum and 1 μg/mL puromycin. Cells were plated into poly-D-lysine coated 384-well plates and cultured overnight in a 37° C. humidified tissue culture incubator under 5% CO2/[…] atmosphere. On the day of the experiment, the culture media was replaced with assay buffer (HBSS, 20 mM HEPES, 0.1% BSA) and the cells incubated at 37° C. for 1 h. Calcium-sensitive fluorescent dye (Fluo 8 No-Wash Calcium Dye, ABD Bioquest) was then added and the cells incubated for another 30 min at 37° C. followed by 15 min at room temperature while protected from the light. The cell plate and a plate of diluted compounds of Formula (III) were loaded into a fluorescent plate reader that added compounds onto the cells while measuring the fluorescence intensity of each well. The plate reader recorded fluorescence intensity at 1 second intervals for 8 min and provided the data for analysis in an Excel format. EC50 values were calculated using Prism (GraphPad) software.

T1 sequence (O14842 whole entry): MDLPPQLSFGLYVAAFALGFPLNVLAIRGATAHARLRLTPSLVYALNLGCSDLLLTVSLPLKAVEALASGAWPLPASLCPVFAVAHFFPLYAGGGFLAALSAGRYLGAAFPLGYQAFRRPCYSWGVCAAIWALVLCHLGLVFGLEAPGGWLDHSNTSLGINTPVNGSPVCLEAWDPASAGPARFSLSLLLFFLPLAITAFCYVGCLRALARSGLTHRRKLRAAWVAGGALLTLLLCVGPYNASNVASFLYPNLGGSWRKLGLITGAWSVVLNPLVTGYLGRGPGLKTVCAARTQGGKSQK

**Q.** Which EC50 does the source give for `COc1ccc(F)c(-n2nnc(COc3cccc([C@@H](CC(=O)O)C4CC4)c3)c2OC(C)C)c1` [Cpd 98, (3S)-3-cyclopropyl-3-[3-[[1-(2-fluoro-5-methoxy-phenyl)-5-isopropoxy-triazol-4-yl]methoxy]phenyl]propanoic acid] here?
**A.** 47 nM and 36 nM

**Q.** Which EC50 does the source give for `COc1ccc(F)c(-n2nnc(COc3cccc([C@@H](CC(=O)O)C4CC4)c3)c2N2CCOCC2)c1` [Cpd 80, (3S)-3-cyclopropyl-3-[3-[[1-(2-fluoro-5-methoxy-phenyl)-5-morpholino-triazol-4-yl]methoxy]phenyl]propanoic acid] here?
**A.** 273 nM

**Q.** `COc1ccc(F)c(-n2nnc(COc3cc([C@H](CC(=O)O)C4CC4)ccn3)c2C2=CCCC2(C)C)c1` [Cpd 75, (3R)-3-cyclopropyl-3-[2-[[5-(5,5-dimethylcyclopenten-1-yl)-1-(2-fluoro-5-methoxy-phenyl)triazol-4-yl]methoxy]-4-pyridyl]propanoic acid] was tested. Which EC50 did it give?
**A.** 60 nM

**Q.** `COc1ccc(F)c(-n2ncc(COc3cc(C(CC(=O)O)C4CC4)c(Cl)cn3)c2C2=CCCC2(C)C)c1` (centres unmarked) [Cpd 71, 3-[5-chloro-2-[[5-(5,5-dimethylcyclopenten-1-yl)-1-(2-fluoro-5-methoxy-phenyl)pyrazol-4-yl]methoxy]-4-pyridyl]-3-cyclopropyl-propanoic acid] was tested. Which EC50 did it give?
**A.** 24 nM

**Q.** `COc1ccc(F)c(-n2nnc(COc3cccc([C@@H](CC(=O)O)C4CC4)c3)c2N2CC3(CCC3)C2)c1` [Cpd 68, (3S)-3-[3-[[5-(6-azaspiro[3.3]heptan-6-yl)-1-(2-fluoro-5-methoxy-phenyl)triazol-4-yl]methoxy]phenyl]-3-cyclopropyl-propanoic acid] was tested. Which EC50 did it give?
**A.** 7 nM and 12 nM and 11 nM

**Q.** With `COc1ccc(F)c(-n2nnc(COc3cccc([C@@H](CC(=O)O)C4CC4)c3)c2OC2CCCCC2)c1` [Cpd 97, (3S)-3-[3-[[5-(cyclohexoxy)-1-(2-fluoro-5-methoxy-phenyl)triazol-4-yl]methoxy]phenyl]-3-cyclopropyl-propanoic acid] as the compound, how does the EC50 read?
**A.** 13 nM and 8 nM

**Q.** `COc1ccc(F)c(-n2ncc(COc3cccc([C@@H](CC(=O)O)C4CC4)c3)c2C=C(C)C)c1` [Cpd 89, (3S)-3-cyclopropyl-3-[3-[[1-(2-fluoro-5-methoxy-phenyl)-5-(2-methylprop-1-enyl)pyrazol-4-yl]methoxy]phenyl]propanoic acid] was tested. Which EC50 did it give?
**A.** 11 nM and 9 nM

**Q.** How did the EC50 turn out when `COc1ccc(F)c(-n2cnc(COc3cccc([C@@H](CC(=O)O)C4CC4)c3)c2C=C(C)C)c1` [Cpd 91, (3S)-3-cyclopropyl-3-[3-[[1-(2-fluoro-5-methoxy-phenyl)-5-(2-methylprop-1-enyl)imidazol-4-yl]methoxy]phenyl]propanoic acid] was run?
**A.** 477 nM and 413 nM

**Q.** With `COc1ccc(F)c(-n2cc(COc3cccc([C@@H](CC(=O)O)C4CC4)c3)cn2)c1` [Cpd 72, (3S)-3-cyclopropyl-3-[3-[[1-(2-fluoro-5-methoxy-phenyl)pyrazol-4-yl]methoxy]phenyl]propanoic acid] as the compound, how does the EC50 read?
**A.** 24 nM and 45 nM and 39 nM

**Q.** `COc1ccc(F)c(-n2ncc(/C=C/c3cccc(C(CC(=O)O)C4CC4)c3)c2C2CC2)c1` (centres unmarked) [Cpd 76, 3-cyclopropyl-3-[3-[(E)-2-[5-cyclopropyl-1-(2-fluoro-5-methoxy-phenyl)pyrazol-4-yl]vinyl]phenyl]propanoic acid] was tested. Which EC50 did it give?
**A.** 66 nM

**Q.** With `COc1ccc(F)c(-n2nnc(COc3cc([C@@H](CC(=O)O)C4CC4)ccn3)c2C2=CCCC2(C)C)c1` [Cpd 64, (3S)-3-cyclopropyl-3-[2-[[5-(5,5-dimethylcyclopenten-1-yl)-1-(2-fluoro-5-methoxy-phenyl)triazol-4-yl]methoxy]-4-pyridyl]propanoic acid] as the compound, how does the EC50 read?
**A.** 1 nM

**Q.** How did the EC50 turn out when `COc1ccc(F)c(-n2nnc(COc3cccc([C@@H](CC(=O)O)C4CC4)c3)c2N2CCCCC2)c1` [Cpd 44, (3S)-3-cyclopropyl-3-[3-[[1-(2-fluoro-5-methoxy-phenyl)-5-(1-piperidyl)triazol-4-yl]methoxy]phenyl]propanoic acid] was run?
**A.** 14 nM

**Q.** `COc1cc(-n2ncc(COc3cccc([C@@H](CC(=O)O)C4CC4)c3)c2C2CC2)c(F)cn1` [Cpd 70, (3S)-3-cyclopropyl-3-[3-[[5-cyclopropyl-1-(5-fluoro-2-methoxy-4-pyridyl)pyrazol-4-yl]methoxy]phenyl]propanoic acid] was tested. Which EC50 did it give?
**A.** 16 nM

**Q.** With `COc1ccc(F)c(-n2nnc(COc3cccc([C@@H](CC(=O)O)C4CC4)c3)c2C2=CCCC2(C)C)c1` [Cpd 86, (3S)-3-cyclopropyl-3-[3-[[5-(5,5-dimethylcyclopenten-1-yl)-1-(2-fluoro-5-methoxy-phenyl)triazol-4-yl]methoxy]phenyl]propanoic acid] as the compound, how does the EC50 read?
**A.** 4 nM and 2 nM

**Q.** With `COc1ccc(F)c(-n2cnc(COc3cccc([C@@H](CC(=O)O)C4CC4)c3)c2CC(C)C)c1` [Cpd 93, (3S)-3-cyclopropyl-3-[3-[[1-(2-fluoro-5-methoxy-phenyl)-5-isobutyl-imidazol-4-yl]methoxy]phenyl]propanoic acid] as the compound, how does the EC50 read?
**A.** 136 nM and 132 nM

**Q.** How did the EC50 turn out when `COc1ccc(F)c(-n2nnc(/C=C/c3cccc([C@@H](CC(=O)O)C4CC4)c3)c2C2CC2)c1` [Cpd 74, (3S)-3-cyclopropyl-3-[3-[(E)-2-[5-cyclopropyl-1-(2-fluoro-5-methoxy-phenyl)triazol-4-yl]vinyl]phenyl]propanoic acid] was run?
**A.** 38 nM

**Q.** How did the EC50 turn out when `COc1ccc(F)c(-n2nnc(COc3cc(C(CC(=O)O)C4CC4)ccn3)c2C2=CCCC2(C)C)c1` (racemic) [Cpd 63, 3-cyclopropyl-3-[2-[[5-(5,5-dimethylcyclopenten-1-yl)-1-(2-fluoro-5-methoxy-phenyl)triazol-4-yl]methoxy]-4-pyridyl]propanoic acid] was run?
**A.** 1 nM

**Q.** How did the EC50 turn out when `COc1ccc(F)c(-n2ncc(COc3cccc([C@@H](CC(=O)O)C4CC4)c3)c2-c2cc(C)cc(C)c2)c1` [Cpd 96, (3S)-3-cyclopropyl-3-[3-[[5-(3,5-dimethylphenyl)-1-(2-fluoro-5-methoxy-phenyl)pyrazol-4-yl]methoxy]phenyl]propanoic acid] was run?
**A.** 25 nM and 23 nM

**Q.** Which EC50 does the source give for `COc1ccc(F)c(-n2ncc(COc3cccc([C@@H](CC(=O)O)C4CC4)c3)c2Br)c1` [Cpd 90, (3S)-3-[3-[[5-bromo-1-(2-fluoro-5-methoxy-phenyl)pyrazol-4-yl]methoxy]phenyl]-3-cyclopropyl-propanoic acid] here?
**A.** 86 nM and 83 nM

**Q.** How did the EC50 turn out when `COc1ccc(F)c(-n2ncc(COc3cccc([C@@H](CC(=O)O)C4CC4)c3)c2-c2ccc(F)cc2F)c1` [Cpd 95, (3S)-3-cyclopropyl-3-[3-[[5-(2,4-difluorophenyl)-1-(2-fluoro-5-methoxy-phenyl)pyrazol-4-yl]methoxy]phenyl]propanoic acid] was run?
**A.** 65 nM and 55 nM

**Q.** For `COc1ccc(F)c(-n2nnc(COc3cccc([C@@H](CC(=O)O)C4CC4)c3)c2CC(C)C)c1` [Cpd 83, (3S)-3-cyclopropyl-3-[3-[[1-(2-fluoro-5-methoxy-phenyl)-5-isobutyl-triazol-4-yl]methoxy]phenyl]propanoic acid], which EC50 is on record?
**A.** 7 nM and 6 nM

**Q.** For `COc1ccc(F)c(-n2nnc(COc3cc(C(CC(=O)O)C4CC4)c(Cl)cn3)c2C2=CCCC2(C)C)c1` (centres unmarked) [Cpd 78, 3-[5-chloro-2-[[5-(5,5-dimethylcyclopenten-1-yl)-1-(2-fluoro-5-methoxy-phenyl)triazol-4-yl]methoxy]-4-pyridyl]-3-cyclopropyl-propanoic acid], which EC50 is on record?
**A.** 69 nM

**Q.** Which EC50 does the source give for `COc1ccc(F)c(-n2nnc(COc3cccc([C@@H](CC(=O)O)C4CC4)c3)c2-c2ccc(C(C)(C)C)s2)c1` [Cpd 92, (3S)-3-[3-[[5-(5-tert-butyl-2-thienyl)-1-(2-fluoro-5-methoxy-phenyl)triazol-4-yl]methoxy]phenyl]-3-cyclopropyl-propanoic acid] here?
**A.** 10 nM and 9 nM
